SMILES strings stand for the structures. Like-named read-outs stand apart in the source and are kept apart here.

In data set [1] the target is T1, AChE from electric eel (Electrophorus electricus) (Electrophorus electricus, UniProt O42275).
T1 construct: purchased Sigma, St. Louis, MO, USA
The data set is described as follows: In vitro AChE inhibition, modified Ellman's method. It counts as biochemical. As to the method: (§1) The ability of all the prepared compounds to inhibit AChE from electric eel (Electrophorus electricus) and BChE from equine serum (both purchased from Sigma, St. Louis, MO, USA) was determined in vitro using a modified Ellman’s method, as described in detail elsewhere. This is a simple, rapid, and direct method to determine the SH and -S-S- group content in proteins. The enzyme activity is measured indirectly by quantifying the concentration of the 5-thio-2-nitrobenzoic acid ion formed in the reaction between the thiol reagent 5,5’-dithiobis-2nitrobenzoic acid (DTNB) and thiocholine, which is a product of acetylthiocholine hydrolysis catalyzed by cholinesterases. The effectiveness of the tested inhibitors is expressed as the IC50 values.
(§2) The enzyme activity in the final reaction mixture (2 mL) was 0.2 U/mL, the concentration of the substrate (acetylthiocholine or butyrythiocholine) was 40 µM, and the concentration of DTNB was 0.1 mM for all reactions. All reactions were carried out at 25 °C in the presence of phosphate-buffered saline (0.1 M, pH 7.4) in a glass cuvette with a 1 cm optical path. All the studied inhibitors were dissolved in DMSO (concentration 0.01 M) and then diluted in demineralized water as necessary. […] All measurements were carried out in triplicate, and the average values of the reaction rate (v0—reaction in the absence of the inhibitor, vi—reaction in the presence of the inhibitor) were used for construction of the dependence v0/vi vs. concentration of the inhibitor.

Data set [2] deals with T2, BChE from equine serum (Equus caballus, UniProt P81908).
T2 construct: BChE from equine serum; purchased Sigma, St. Louis, MO, USA; host or cells: equine serum
In words: In vitro BChE inhibition, modified Ellman's method. It counts as biochemical. The following applies: for SI (index selectivity) = IC50 (AChE)/IC50 (BChE): ratio IC50 AChE/IC50 BChE. As to the method: as §1, §2

The nature of data set [3]: Determination of lipophilicity by RP-HPLC (capacity factor k). The following applies: C18, isocratic MeOH 72%/H2O 28%, 40 °C. It counts as physicochemical. As to the method: The lipophilicity of all the target compounds was investigated by means of RP-HPLC determination of capacity factors k with a subsequent calculation of log k. The retention times of individual compounds were determined under isocratic conditions with methanol as an organic modifier in the mobile phase using end-capped non-polar C18 stationary RP columns.
The HPLC separation system Agilent 1200 series equipped with a DAD SL (Agilent Technologies) was used. A chromatographic column Symmetry® C18 5 μm, 4.6 × 250 mm, Part No. W21751W016 (Waters Corp., Milford, MA, USA) was applied. The HPLC separation process was monitored by the ChemStation for LC 3D chromatography software (Agilent Technologies). Isocratic elution by a mixture of MeOH p.a. (72%) and H2O-HPLC Mili-Q grade (28%) as a mobile phase was used for the determination of the capacity factor k. The total flow of the column was 1.0 mL/min, injection 20 μL, column temperature 40 °C, and sample temperature 10 °C. The detection wavelength of 210 nm was chosen. A KI methanolic solution was used for the determination of the dead times (tD). Retention times (tR) were measured in minutes. The capacity factors k were calculated according to the formula k = (tR − tD)/tD, where tR is the retention time of the solute and tD is the dead time obtained using an unretained analyte. Each experiment was repeated three times.

T2 sequence (P81908 whole entry): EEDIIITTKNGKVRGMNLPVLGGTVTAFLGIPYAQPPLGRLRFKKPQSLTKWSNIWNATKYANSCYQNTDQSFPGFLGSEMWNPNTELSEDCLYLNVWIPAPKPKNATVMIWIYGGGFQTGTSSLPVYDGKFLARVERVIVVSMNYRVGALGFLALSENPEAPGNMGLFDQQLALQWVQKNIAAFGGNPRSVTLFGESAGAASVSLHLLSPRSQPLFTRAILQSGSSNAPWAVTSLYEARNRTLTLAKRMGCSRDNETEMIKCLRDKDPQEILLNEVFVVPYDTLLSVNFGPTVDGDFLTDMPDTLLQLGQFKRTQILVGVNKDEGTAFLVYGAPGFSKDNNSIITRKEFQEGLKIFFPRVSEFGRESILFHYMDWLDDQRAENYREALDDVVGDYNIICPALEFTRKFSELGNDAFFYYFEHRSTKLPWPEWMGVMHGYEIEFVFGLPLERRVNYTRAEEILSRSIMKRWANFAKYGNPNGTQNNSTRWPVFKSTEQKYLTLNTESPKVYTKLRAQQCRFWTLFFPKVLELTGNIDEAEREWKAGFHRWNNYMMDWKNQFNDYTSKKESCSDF
T1 sequence (O42275 24-633): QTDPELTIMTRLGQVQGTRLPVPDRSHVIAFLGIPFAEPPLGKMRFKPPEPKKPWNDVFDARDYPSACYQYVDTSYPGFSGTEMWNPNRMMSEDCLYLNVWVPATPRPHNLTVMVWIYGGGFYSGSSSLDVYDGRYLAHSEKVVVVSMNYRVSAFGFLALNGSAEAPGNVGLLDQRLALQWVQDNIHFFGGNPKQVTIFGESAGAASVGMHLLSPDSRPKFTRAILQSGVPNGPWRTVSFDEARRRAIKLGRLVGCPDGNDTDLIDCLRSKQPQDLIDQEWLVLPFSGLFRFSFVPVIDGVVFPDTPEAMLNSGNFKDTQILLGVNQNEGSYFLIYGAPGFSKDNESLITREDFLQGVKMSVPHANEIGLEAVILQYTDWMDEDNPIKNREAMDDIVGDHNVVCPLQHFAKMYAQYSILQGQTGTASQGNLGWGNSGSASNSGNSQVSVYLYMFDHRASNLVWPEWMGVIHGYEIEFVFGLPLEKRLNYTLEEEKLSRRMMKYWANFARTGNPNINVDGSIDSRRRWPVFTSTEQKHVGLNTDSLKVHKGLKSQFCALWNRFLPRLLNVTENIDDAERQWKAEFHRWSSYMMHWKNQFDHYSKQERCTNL

For the molecule `O=C(Nc1ccc(C(=O)Nc2ccccc2OC(F)(F)F)c(O)c1)OCc1ccccc1`, in data set [1] (mean ± SD, n = 3, electric eel AChE, 25 °C, pH 7.4, read-out: IC50 AChE), the IC50 turned out to be 36.1 µM.

`O=C(Nc1ccc(C(=O)O)c(O)c1)OCc1ccccc1` [CbzPAS, 4-{[(Benzyloxy)carbonyl]amino}-2-hydroxybenzoic acid, reference compound] displayed an IC50 in data set [1] of 58.1 ± 1.04 µM. In addition, in data set [2], it took 137 ± 21.8 µM to reach half-maximal inhibition (IC50) and the “SI (index selectivity) = IC50 (AChE)/IC50 (BChE)” value (from here on “SI (index selectivity) = IC50”) was found to be 0.42.

In turn, `O=C(Nc1ccc(C(=O)Nc2ccccc2)c(O)c1)OCc1ccccc1` [Compound 1, Benzyl[3-hydroxy-4-(phenylcarbamoyl)phenyl]carbamate] registered an IC50 in data set [1] of 65.2 ± 2.24 µM. Moreover, in data set [2], the midpoint of inhibition, the IC50, lay at 175 ± 5.85 µM and the “SI (index selectivity) = IC50” value was 0.37. In data set [3], this molecule registered a log k of 0.1160.

As to `COc1cccc(NC(=O)c2ccc(NC(=O)OCc3ccccc3)cc2O)c1` [Compound 3, Benzyl{3-hydroxy-4-[(3-methoxyphenyl)carbamoyl]phenyl}carbamate], the IC50 in data set [1] was 69.3 ± 2 µM. In addition, in data set [2], it took 362 ± 8.12 µM to reach half-maximal inhibition (IC50) and the “SI (index selectivity) = IC50” value is given as 0.19. In data set [3], the log k was 0.1280.

As to `COc1ccc(NC(=O)c2ccc(NC(=O)OCc3ccccc3)cc2O)cc1` [Compound 4, Benzyl{3-hydroxy-4-[(4-methoxyphenyl)carbamoyl]phenyl}carbamate], the IC50 is 57.49 ± 0.08 µM in data set [1] and 154 ± 6.09 µM in data set [2]. The “SI (index selectivity) = IC50” value in data set [2] came to 0.37. Moreover, the log k in data set [3] was found to be 0.1176.

Regarding `Cc1cccc(NC(=O)c2ccc(NC(=O)OCc3ccccc3)cc2O)c1` [Compound 5, Benzyl{3-hydroxy-4-[(3-methylphenyl)carbamoyl]phenyl}carbamate], the IC50 was 70.2 ± 1.7 µM in data set [1] and 167 ± 10.2 µM in data set [2]. The “SI (index selectivity) = IC50” value in data set [2] is listed as 0.42. In data set [3], this molecule gave a log k of 0.2725.

As to `O=C(Nc1ccc(C(=O)Nc2ccccc2F)c(O)c1)OCc1ccccc1` [Compound 6, Benzyl{4-[(2-fluorophenyl)carbamoyl]-3-hydroxyphenyl}carbamate], 50.07 ± 0.06 µM corresponded to half-maximal inhibition in data set [1] (IC50). In data set [2], half-maximal inhibition (IC50) was put at 70.8 ± 5.61 µM and the “SI (index selectivity) = IC50” value came to 0.71. Moreover, in data set [3], the log k was determined as 0.3577.

Turning to `O=C(Nc1ccc(C(=O)Nc2cccc(F)c2)c(O)c1)OCc1ccccc1` [Compound 7, Benzyl{4-[(3-fluorophenyl)carbamoyl]-3-hydroxyphenyl}carbamate], the results for the IC50 in data set [1] and in data set [2] were 66.6 ± 0.14 µM and 197.6 ± 1.36 µM, respectively. In addition, in data set [2], the “SI (index selectivity) = IC50” value is reported as 0.34. Besides, in data set [3], the log k is 0.2303.

In data set [1], `O=C(Nc1ccc(C(=O)Nc2ccc(F)cc2)c(O)c1)OCc1ccccc1` [Compound 8, Benzyl{4-[(4-fluorophenyl)carbamoyl]-3-hydroxyphenyl}carbamate] yielded an IC50 of 47.4 ± 0.61 µM. Besides, in data set [2], the IC50 turned out to be 105.8 ± 0.43 µM and the “SI (index selectivity) = IC50” value was found to be 0.45. In data set [3], this molecule yielded a log k of 0.3924.

In the case of `O=C(Nc1ccc(C(=O)Nc2ccccc2Cl)c(O)c1)OCc1ccccc1` [Compound 9, Benzyl{4-[(2-chlorophenyl)carbamoyl]-3-hydroxyphenyl}carbamate], the IC50 stood at 41.86 ± 0.15 µM in data set [1] and 140.1 ± 0.35 µM in data set [2]. For the same molecule, the “SI (index selectivity) = IC50” value in data set [2] is given as 0.30. Further, the log k in data set [3] came to 0.5188.

As for `O=C(Nc1ccc(C(=O)Nc2cccc(Cl)c2)c(O)c1)OCc1ccccc1` [Compound 10, Benzyl{4-[(3-chlorophenyl)carbamoyl]-3-hydroxyphenyl}carbamate], it took 61.6 ± 1.74 µM to reach half-maximal inhibition in data set [1] (IC50). In data set [2], the IC50 was 204 ± 7.49 µM and the “SI (index selectivity) = IC50” value was 0.30. Moreover, the log k in data set [3] worked out at 0.6411.

In data set [1], `O=C(Nc1ccc(C(=O)Nc2ccc(Cl)cc2)c(O)c1)OCc1ccccc1` [Compound 11, Benzyl{4-[(4-chlorophenyl)carbamoyl]-3-hydroxyphenyl}carbamate] returned an IC50 of 78.2 ± 1.58 µM. In addition, in data set [2], the IC50 came out at 139 ± 6.86 µM and the “SI (index selectivity) = IC50” value was 0.56. The log k in data set [3] came out at 0.6399.

On to `O=C(Nc1ccc(C(=O)Nc2ccccc2C(F)(F)F)c(O)c1)OCc1ccccc1` [Compound 12, Benzyl(3-hydroxy-4-{[2-(trifluoromethyl)phenyl]carbamoyl}phenyl)carbamate], for which it took 56.4 ± 1.26 µM to reach half-maximal inhibition in data set [1] (IC50). For the same molecule, in data set [2], the IC50 stood at 33.6 ± 0.71 µM and the “SI (index selectivity) = IC50” value was 1.68. The same molecule yielded a log k in data set [3] of 0.4318.

In the case of `O=C(Nc1ccc(C(=O)Nc2cccc(C(F)(F)F)c2)c(O)c1)OCc1ccccc1` [Compound 13, Benzyl(3-hydroxy-4-{[3-(trifluoromethyl)phenyl]carbamoyl}phenyl)carbamate], the IC50 came out at 70.67 ± 0.57 µM in data set [1] and 309 ± 8.06 µM in data set [2]. In data set [2], the “SI (index selectivity) = IC50” value amounted to 0.23. Besides, the log k in data set [3] turned out to be 0.4477.

As for `O=C(Nc1ccc(C(=O)Nc2ccc(C(F)(F)F)cc2)c(O)c1)OCc1ccccc1` [Compound 14, Benzyl(3-hydroxy-4-{[4-(trifluoromethyl)phenyl]carbamoyl}phenyl)carbamate], the IC50 in data set [1] amounted to 71.4 ± 5.04 µM. Also, in data set [2], 137 ± 21.9 µM corresponded to half-maximal inhibition (IC50) and the “SI (index selectivity) = IC50” value was 0.52. The molecule further displayed a log k in data set [3] of 0.7408.

The molecule `O=C(Nc1ccc(C(=O)Nc2ccccc2OC(F)(F)F)c(O)c1)OCc1ccccc1` [Compound 15, Benzyl(3-hydroxy-4-{[2-(trifluoromethoxy)phenyl]carbamoyl}phenyl)carbamate] displayed an IC50 in data set [1] of 36 ± 1.48 µM. In addition, in data set [2], the IC50 stood at 44.3 ± 0.87 µM and the “SI (index selectivity) = IC50” value is given as 0.81. Besides, the log k in data set [3] is 0.6227.

For `O=C(Nc1ccc(C(=O)Nc2cccc(F)c2F)c(O)c1)OCc1ccccc1` [Compound 16, Benzyl{4-[(2,3-difluorophenyl)carbamoyl]-3-hydroxyphenyl}carbamate], the IC50 in data set [1] worked out at 62.4 ± 1.42 µM; in data set [2], 200 ± 7 µM. Further, in data set [2], the “SI (index selectivity) = IC50” value came out at 0.31. For the same molecule, the log k in data set [3] stood at 0.4705.

The molecule `O=C(Nc1ccc(C(=O)Nc2ccc(F)cc2F)c(O)c1)OCc1ccccc1` [Compound 17, Benzyl{4-[(2,4-difluorophenyl)carbamoyl]-3-hydroxyphenyl}carbamate] displayed an IC50 in data set [1] of 79.2 ± 1.27 µM. Further, in data set [2], the midpoint of inhibition, the IC50, lay at 180 ± 7.04 µM and the “SI (index selectivity) = IC50” value was found to be 0.44. The molecule further returned a log k in data set [3] of 0.1912.

Consider `O=C(Nc1ccc(C(=O)Nc2cc(F)ccc2F)c(O)c1)OCc1ccccc1` [Compound 18, Benzyl{4-[(2,5-difluorophenyl)carbamoyl]-3-hydroxyphenyl}carbamate], for which the IC50 in data set [1] came to 58.31 ± 0.2 µM. In data set [2], it took 157 ± 3.11 µM to reach half-maximal inhibition (IC50) and the “SI (index selectivity) = IC50” value was 0.37. This molecule returned a log k in data set [3] of 0.4012.

The molecule `O=C(Nc1ccc(C(=O)Nc2c(F)cccc2F)c(O)c1)OCc1ccccc1` [Compound 19, Benzyl{4-[(2,6-difluorophenyl)carbamoyl]-3-hydroxyphenyl}carbamate] came in with an IC50 in data set [1] of 64.3 ± 4.74 µM. Also, in data set [2], the IC50 was 42.9 ± 2.13 µM and the “SI (index selectivity) = IC50” value is 1.50. The molecule further showed a log k in data set [3] of -0.1205.

Source of the values: paper PMC8037530, “Synthesis and Hybrid SAR Property Modeling of Novel Cholinesterase Inhibitors” (International Journal of Molecular Sciences, 2021).
